# Data reported in US20210268115A1 (priority 2020, published 2021).
# Where two headings read alike, the source gives them in different places.
# Experiments:
# [1] = male, Sprague-Dawley, in vivo
# [2] = male, Sprague-Dawley, rat, in vivo
# [3] = In vitro release of therapeutic agent from prodrugs in plasma supplemented with lipoprotein lipase; assay type: in vitro ADME; details: free allopregnanolone (parent API) in dog plasma supplemented with LPL, 37° C.
# Description: In order to probe the release of free drug from TG prodrugs in the systemic circulation, prodrugs are incubated with plasma (rat, dog, monkey, or human) supplemented with lipoprotein lipase (LPL, 200 IU/ml). LPL is a key enzyme required for the hydrolysis of lipoprotein associated TG in the systemic circulation and is therefore expected to be a key contributor to lipolysis of the re-esterified drug-TG construct in plasma, largely via liberation of fatty acids in the sn-1 and the sn-3 position of the TG-mimetic, prior to drug release from the 2′ position via esterase hydrolysis. LPL is active in plasma but is tethered to the luminal surface of vascular endothelial cells under physiological conditions. In the current in vitro studies, plasma is therefore supplemented with LPL to better reflect the in vivo situation.
# To start hydrolysis, 10 μl of LPL solution (10,000 IU/ml) will be added to a mixture of 10 μl of prodrug solution (1 mg/ml dissolved in organic solvent, e.g., THF, DMSO, or acetonitrile) and 500 μl of blank plasma. The mixture will be incubated at 37° C. […] The supernatant will be analyzed by HPLC-MS/MS for the potential products (MG form, acid form, and free drug) of prodrug hydrolysis.
# The in vitro hydrolysis profile of selected prodrug compounds will be determined in rat, dog, monkey and/or human plasma supplemented with LPL.
# [4] = cynomolgus monkey, in vivo; for Prodrug detectability in plasma after dose administration / Tmax: po; for Tmax: male, 8.8 umol/kg
Structure (SMILES),Cmax ([2]; 2 mg/kg),"Mean Plasma AUC, 0-24 h ([2]; 2 mg/kg)",Tmax ([2]; 2 mg/kg),also measured
"CC(=O)[C@H]1CC[C@H]2[C@@H]3CC[C@H]4C[C@H](O)CC[C@]4(C)[C@H]3CC[C@]12C [Allopregnanalone, 5α-pregnan-3α-ol-20-one]",–,–,–,"Rat - cumulative lymphatic transport: Mean, total lymphatic transport over 6 or 8 hours (%) [1]: 0.1%"
"CCC(=O)OCC(COC(=O)CC)OC(=O)C(C)CCCCCCCCC(C)C(=O)OCCCCC(=O)O[C@@H]1CC[C@@]2(C)[C@@H](CC[C@@H]3[C@@H]2CC[C@]2(C)[C@@H](C(C)=O)CC[C@@H]32)C1 (stereo partly shown) [Compound I-5, ALL-FSI5-C12a′aMe-2-TG]",62.8 nM,0.0839 µM·h,1.8 h,–
"CCC(=O)OCC(COC(=O)CC)OC(=O)C(C)CCCCCCCCC(C)C(=O)OC(C)OC(=O)O[C@@H]1CC[C@@]2(C)[C@@H](CC[C@@H]3[C@@H]2CC[C@]2(C)[C@@H](C(C)=O)CC[C@@H]32)C1 (stereo partly shown) [Compound I-6, ALL-CMSI-C12a′aMe-2-TG]",239 nM,0.3209 µM·h,1 h,–
"CCCCCCCCCCCCCCCC(=O)OCC(COC(=O)CCCCCCCCCCCCCCC)OC(=O)CC(C)CC(=O)OC(C)OC(=O)O[C@@H]1CC[C@@]2(C)[C@@H](CC[C@@H]3[C@@H]2CC[C@]2(C)[C@@H](C(C)=O)CC[C@@H]32)C1 (stereo partly shown) [Compound I-8, ALL-CMSI-C5bMe-2-TG]",241 nM,0.3681 µM·h,2.3 h,Parent API present at end of experiment (%) [3]: B (≥20% and <60% release into plasma)
"CCCCCCCC(=O)OCC(COC(=O)CCCCCCC)OC(=O)CC(C)CC(=O)OC(C)OC(=O)O[C@@H]1CC[C@@]2(C)[C@@H](CC[C@@H]3[C@@H]2CC[C@]2(C)[C@@H](C(C)=O)CC[C@@H]32)C1 (stereo partly shown) [Compound I-36, ALL-CMSI-C5bMe-2-TG-octanoate]",–,–,–,"Mean Plasma AUC, 0-24 h ([2]; po): 0.312 µM·h; Tmax ([2]; po): 1.2 h; Tolerability of oral administration [4]: well-tolerated; Prodrug detectability in plasma after dose administration [4]: detectable in plasma samples after dose administration at all time-points; Tmax [4]: 4.0 h"
"CCCC(=O)OCC(COC(=O)CCC)OC(=O)CC(C)CC(=O)OC(C)OC(=O)O[C@@H]1CC[C@@]2(C)[C@@H](CC[C@@H]3[C@@H]2CC[C@]2(C)[C@@H](C(C)=O)CC[C@@H]32)C1 (stereo partly shown) [Compound I-37, ALL-CMSI-C5bMe-2-TG-butyrate]",–,–,–,"Cmax ([2]; po): 138 nM; Mean Plasma AUC, 0-24 h ([2]; po): 0.191 µM·h; Tmax ([2]; po): 0.8 h"
"CC(=O)OCC(COC(C)=O)OC(=O)CC(C)CC(=O)OC(C)OC(=O)O[C@@H]1CC[C@@]2(C)[C@@H](CC[C@@H]3[C@@H]2CC[C@]2(C)[C@@H](C(C)=O)CC[C@@H]32)C1 (stereo partly shown) [Compound I-38, ALL-CMSI-C5bMe-2-TG-acetate]",–,–,–,"Cmax ([2]; po): 335 nM; Mean Plasma AUC, 0-24 h ([2]; po): 0.45 µM·h; Tmax ([2]; po): 1 h"
"CCCCCCCC/C=C\CCCCCCCC(=O)OCC(COC(=O)CCCCCCC/C=C\CCCCCCCC)OC(=O)CCCCC(=O)OCO[C@@H]1CC[C@@]2(C)[C@@H](CC[C@@H]3[C@@H]2CC[C@]2(C)[C@@H](C(C)=O)CC[C@@H]32)C1 [Compound I-40, ALL-ASI-C6-2-TG-oleate]",165 nM,0.265 µM·h,1.7 h,–
"CCCCCCCC/C=C\CCCCCCCC(=O)OCC(COC(=O)CCCCCCC/C=C\CCCCCCCC)OC(=O)CCCCCCC(=O)OCO[C@@H]1CC[C@@]2(C)[C@@H](CC[C@@H]3[C@@H]2CC[C@]2(C)[C@@H](C(C)=O)CC[C@@H]32)C1 [Compound I-41, ALL-ASI-C8-2-TG-oleate]",129 nM,0.211 µM·h,1.7 h,–
"CCCCCCCC/C=C\CCCCCCCC(=O)OCC(COC(=O)CCCCCCC/C=C\CCCCCCCC)OC(=O)CC(C)CCCCC(=O)OCO[C@@H]1CC[C@@]2(C)[C@@H](CC[C@@H]3[C@@H]2CC[C@]2(C)[C@@H](C(C)=O)CC[C@@H]32)C1 (stereo partly shown) [Compound I-42, ALL-ASI-C8bMe-2-TG-oleate]",334 nM,0.47 µM·h,1.5 h,–
"CCCCCCCC(=O)OCC(COC(=O)CCCCCCC)OC(=O)CC(C)CC(=O)OCOC(=O)O[C@@H]1CC[C@@]2(C)[C@@H](CC[C@@H]3[C@@H]2CC[C@]2(C)[C@@H](C(C)=O)CC[C@@H]32)C1 (stereo partly shown) [Compound I-47, ALL-CASI-C5bMe-2-TG-octanoate]",–,–,–,Tolerability of oral administration [4]: well-tolerated; Prodrug detectability in plasma after dose administration [4]: detectable in plasma samples after dose administration at all time-points; Tmax [4]: 4.0 h
"CCCCCCCC/C=C\CCCCCCCC(=O)OCC(COC(=O)CCCCCCC/C=C\CCCCCCCC)OC(=O)CCCCC(C)CC(=O)OCOC(=O)O[C@@H]1CC[C@@]2(C)[C@@H](CC[C@@H]3[C@@H]2CC[C@]2(C)[C@@H](C(C)=O)CC[C@@H]32)C1 (stereo partly shown) [Compound I-49, ALL-CASI-C8b′Me-2-TG-oleate]",370 nM,0.513 µM·h,1.7 h,–
